Read-outs that look alike come from different tables or passages of the source. Marks after values point to notes of the source that are not given here.
Legend:
[1] = Determination of thiol pKa values (pH-titration monitored by absorbance at 238 nm); assay type: physicochemical; settings: for pKa: potassium phosphate buffer, mean ± SE from this work
Description: The thiol pKa values of DTBA were determined by measuring its absorbance at 238 nm in solutions of different pH. The deprotonated thiolate absorbs much more strongly at 238 nm than does its protonated counterpart. [15a] This attribute was exploited for determining thiol pKa values as described previously. [15b] Buffered stock solutions of K3PO4, K2HPO4, and KH2PO4 (100 mM) were degassed and flushed with N2(g) for 1 h immediately prior to use. A stock solution of DTBA (1.5 mM) in KH2PO4 was then prepared. Various combinations of the buffered stock solutions were combined in duplicate to give two identical sets of 1-mL solutions of pH 5.5-11. KH2PO4 stock solution (70 μL) was added to each replicate pair of solutions and used to set the A238 to zero. Dithiol solution (70 μL) was then added to its complimentary 1-mL vial, and its absorbance at 238 nm was recorded. The pH of the solution was then immediately measured using a Beckman pH meter, which had been calibrated prior to use with pH 7 and pH 10 standard solutions from Fisher Scientific. This process was repeated multiple times to obtain a plot of A238 vs pH (FIG. 3).
pKa values were determined by fitting the data in FIG. 3 to eq 1, which is derived from Beer's law and the definition of the acid dissociation constant. [15b] In eq 1, CT is total thiol concentration, εSH^SH is the extinction coefficient of the doubly protonated form, εSH^S− is the extinction coefficient of the singly protonated form, and εS−^S−is the extinction coefficient of the unprotonated form. Both pKa values and extinction coefficients were determined from the curve fit.

[2] = Kinetic studies on the reduction of oxidized βME; assay type: physicochemical
Description: The observed second-order rate constant (kobs) for a thiol-disulfide interchange reaction was determined by adapting a procedure described previously. [2e] When the disulfide is oxidized βME, a 50 mM stock solution of potassium phosphate buffer was degassed and purged with N2(g) for 30 min immediately prior to use. […] Phosphate buffer (2.5 mL) was added to the round-bottom flask containing the dithiol. Oxidized βME stock solution (2.5 mL) was then added, and the reaction mixture was stirred at room temperature under N2(g) for 1 min. The reaction mixture was quenched by the addition of 0.10 mL of 3 N HCl. The reaction mixture was passed through a 4.5-μm filter, and 100 μL of the reaction mixture was analyzed immediately by HPLC using a Varian C18 reverse-phase column. The column was eluted at 1.0 mL/min with water (5.0 mL), followed by a linear gradient (0-40% v/v) of acetonitrile/water over 40 min. The extent of reduction was determined by integrating the newly formed peak corresponding to βME at 205 nm (retention time: 8 min). This process was repeated for reaction times of 2 and 4 min. Calibration curves were generated and found to be linear over the used concentration range. The amount of residual oxidized βME was calculated, and second-order rate constants were calculated from a linear fit of the data in FIG. 1A (that is, kobs=[(1/cfinal)−(1/cinitial)]/t). […] Rate constants were the mean±SE from three experiments.

[3] = Kinetic studies on the reduction of oxidized L-glutathione; assay type: physicochemical; settings: for kobs, second-order rate constant, reduction of oxidized L-glutathione: pH 7.0, 50 mM potassium phosphate buffer, mean ± SE from three experiments
Description: An experiment similar to that in Example 7 was conducted with disulfide=oxidized L-glutathione. Reactions were quenched at various time points (2, 4, 6, and 8 min) and 100 μL was analyzed by HPLC (1.0 mL/min with water (5.0 mL) in 0.1% v/v TFA, followed by a linear gradient (0-40% v/v) of acetonitrile in 0.1% v/v TFA over 40 min). The extent of reduction was determined by integrating the newly formed L-glutathione reduced peak at 220 nm (retention time of 7 min). Second-order rate constants were calculated from a linear fit of the data in FIG. 1B (that is, kobs=[(1/cfinal)−(1/cinitial)]/t). Rate constants were the mean±SE from three experiments.

[4] = biological target: T1, papaya latex papain (Carica papaya, UniProt P00784); test: Kinetic studies on the reactivation of papain (reduction of mixed disulfide at Cys25); assay type: biochemical; settings: 0.10 M imidazole-HCl buffer, pH 7.0, 2 mM EDTA; for kobs, second-order rate constant, reactivation of papain: mean ± SE from three experiments
T1 construct: Cys25 in the active site of papaya latex papain; from tissue; host or cells: papaya latex
T1 sequence (P00784 134-345): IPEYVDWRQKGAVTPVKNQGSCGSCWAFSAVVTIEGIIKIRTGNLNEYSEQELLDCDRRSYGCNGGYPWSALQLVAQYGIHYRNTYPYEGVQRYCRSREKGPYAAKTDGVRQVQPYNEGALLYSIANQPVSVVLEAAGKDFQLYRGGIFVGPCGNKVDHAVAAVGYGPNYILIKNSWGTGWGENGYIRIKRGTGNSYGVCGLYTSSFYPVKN
Description: Cys25 in the active site of papaya latex papain was oxidized as a mixed disulfide by a procedure described previously.[25] Briefly, a stock solution of methyl methanethiosulfonate (3.5 mM) was prepared by dilution of 5 μL of methyl methanethiosulfonate with 15 mL of 0.10 M potassium phosphate buffer, pH 7.0, containing EDTA (2 mM). KCl (0.011 g, 0.15 mmol) was added to 1.5 mL of this stock solution. The solution was deoxygenated by bubbling N2(g) through it for 15 min. Next, papain (5 mg, 150 units) was added, and the resulting solution was incubated at room temperature under N2(g) for 12 h. Excess methyl methanethiosulfonate was removed by size-exclusion chromatography using a Sephadex G-25 column. The final concentration of papain was determined by A280 using ε280=5.60×10^4 M^−1cm^−1. A solution (0.26 mL) of the chromatographed protein was diluted with 4.94 mL of deoxygenated aqueous buffer (0.10 M imidazole-HCl buffer, pH 7.0, containing 2 mM EDTA). Enzyme solution (1.25 mL) was then added to four separate vials. […] The rate of change in absorbance at 410 nm was recorded at 25° C. A unit of protein is defined by the amount of enzyme required to produce 1 μmol/min of 4-nitroaniline. Using an extinction coefficient for 4-nitroaniline of ε=8,800 M^−1cm^−1 at 410 nm, [27] the number of units of active papain in solution at each time point was calculated. […] Enzymatic activity (%) at particular times was calculated by dividing the number of active units of enzyme by the possible number of units in the solution, and was plotted as in FIG. 2A. To determine the value of the second-order rate constant kobs for the reducing agents, the second-order rate equation (eq 4) was transformed into eq 5, which was fitted to the data with the program PRISM 5.0. […] Values of kobs were the mean±SE from three experiments.

[5] = biological target: T2, rabbit muscle creatine kinase (Oryctolagus cuniculus, UniProt P00563); test: Kinetic studies on the reactivation of creatine kinase (reduction of mixed disulfide at Cys283); assay type: biochemical; settings: creatine kinase-Cys283-S—S-glutathione; mean ± SE from three experiments
T2 construct: Cys283 in the active site of rabbit muscle creatine kinase; from tissue; host or cells: rabbit muscle
T2 sequence (P00563 whole entry): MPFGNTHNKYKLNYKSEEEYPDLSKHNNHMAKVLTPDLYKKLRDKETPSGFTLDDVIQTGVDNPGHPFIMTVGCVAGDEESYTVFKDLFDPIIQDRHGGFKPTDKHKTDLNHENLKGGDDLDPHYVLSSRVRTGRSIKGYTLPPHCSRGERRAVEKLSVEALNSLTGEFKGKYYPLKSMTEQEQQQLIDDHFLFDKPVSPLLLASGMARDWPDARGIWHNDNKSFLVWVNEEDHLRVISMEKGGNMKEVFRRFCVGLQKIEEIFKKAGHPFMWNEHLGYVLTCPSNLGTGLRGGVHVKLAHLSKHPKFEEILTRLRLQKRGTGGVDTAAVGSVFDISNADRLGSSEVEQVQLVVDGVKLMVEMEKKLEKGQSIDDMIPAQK
Description: Cys283 in the active site of rabbit muscle creatine kinase was oxidized as a mixed disulfide by a procedure described previously, [28] but with a slight modification in the measurement of active enzyme. A unit of enzyme was defined as the amount required to produce 1 μmol/min of NADPH. Using an extinction coefficient for NADPH of ε=6.22 mM^−cm^−1 at 340 nm, the units of active creatine kinase in solution at a particular time were calculated. […] Enzymatic activity (%) at particular times was calculated by dividing the number of active units of enzyme by the possible number of units in the solution, and was plotted as in FIG. 2B. Values of the second-order rate constant k were determined by using eq 4 as described in Example 9, and were the mean±SE from three experiments.

[6] = Separation using DOWEX 50WX4-400 ion-exchange resin (Ellman's assay of filtrate); assay type: physicochemical; settings: 0.10 M sodium phosphate buffer, pH 8.0, 1 mM EDTA
Description: A reaction buffer (0.10 M sodium phosphate, pH 8.0, 1 mM EDTA) was prepared. Ellman's reagent solution was prepared by adding Ellman's reagent (4 mg) to 1 mL of the reaction buffer. Next, to 25 mL of reaction buffer (0.10 M sodium phosphate, pH 8.0, 1 mM EDTA) was added DTBA (2.2 mg, 1.27×10^−5 mol) and 1.7 g of DOWEX 50WX4-400 ion-exchange resin. The mixture was swirled for several minutes and filtered through a fritted syringe. Ellman's reagent solution (50 μL) was added to two separate vials containing 2.5 mL of reaction buffer. As a blank, 250 μL of reaction buffer was added to one of the vials, and the absorbance at 412 nm was set to zero. Filtrate (250 μL) was then added to the other vial and its absorbance was recorded. With A412=0.012 and using an extinction coefficient of ε=14,150 M^−1cm^−1, [24b, 24c] it was calculated that >99% of DTBA was retained by the resin and thus removed from solution. […] See Example 3 for a more detailed explanation of similar calculations using Ellman's assay.

[7] = value from the literature, cited from earlier work
[8] = Reduction potential (E°′) from HPLC redox equilibrium with oxidized DTT; assay type: physicochemical; settings: for Keq for the reaction with oxidized DTT: 50 mM potassium phosphate buffer pH 7, 24 h, room temperature
Description: [2g] Data were obtained by a procedure similar to that described previously. [2g, 15b] […] The flask was then flushed with N2(g) for 30 min.
A 50 mM stock solution of potassium phosphate buffer (pH 7) was degassed and purged with N2(g) for 30 min immediately prior to use. Buffer (15 mL) was added, and the reaction mixture was stirred under N2(g) for 24 h at room temperature. The reaction mixture was then quenched by the addition of 3 N HCl (1:100 dilution). The reaction mixture was passed through a 4.5-μm filter, and 100 μL of the reaction mixture was analyzed immediately by HPLC using a Waters system equipped with a Waters 996 photodiode array detector, Empower 2 software, and a Varian C18 reverse-phase column. The column was eluted at 1.0 mL/min with water (5.0 mL), followed by a linear gradient (0-40% v/v) of acetonitrile/water over 40 min. Compounds were detected by their absorbance at 205 nm. Reduced and oxidized DTBA are highly polar and elute from the column immediately (as confirmed by LC-MS). Two peaks, however, were clearly visible in the chromatogram FIG. 4). […] Calibration curves were generated and found to be linear over the used concentration range.
The procedure described in Example 5 was also performed with BMS. […] A previously reported reduction potential for BMS was E°′=−0.31 V. [2g]

[9] = value from the literature, cited from earlier work; remark: listed apart in the source
[10] = from ref. 13; cited from earlier work
[11] = Solubility in water; assay type: physicochemical; settings: HCl salt
[12] = pH 5.5, 50 mM potassium phosphate buffer
[13] = pH 7.0, 50 mM potassium phosphate buffer, mean ± SE from three experiments

| Compound | kobs, second-order rate constant, reduction of oxidized βME [2, 12] | kobs, second-order rate constant, reduction of oxidized βME [2, 13] | kobs, second-order rate constant, reduction of oxidized L-glutathione [3] | kobs, second-order rate constant, reactivation of papain [4] | kobs, second-order rate constant, reactivation of creatine kinase [5] | Fraction removed from solution (retained) by Dowex 50 cation-exchange resin [6] | Keq for the reaction with oxidized DTT [8] | Disulfide Reduction Potential (E°′) [7] | Thiol pKa ([9]; lower (first) thiol pKa) | further results |
| --- | --- | --- | --- | --- | --- | --- | --- | --- | --- | --- |
| O[C@H](CS)[C@H](O)CS (racemic) [DTT, (2S,3S)-1,4-dimercaptobutane-2,3-diol] | 0.0021 ± 0.0002 M⁻¹ s⁻¹ | 0.084 ± 0.004 M⁻¹ s⁻¹ | 0.16 ± 0.02 M⁻¹ s⁻¹ | 91.3 ± 9.4 M⁻¹ s⁻¹ | 17.5 ± 1.6 M⁻¹ s⁻¹ | < 1% |  |  |  | Residues in the reactive thiolate form ([1]; at pH 7): less than 1%; Thiol groups protonated (unreactive) ([1]; at pH 7, from lower thiol pKa […]): greater than 99%; Disulfide Reduction Potential (E°′) ([7]; listed as DTT (racemate)): −0.327 V^e |
| O=S(=O)(CCS)CCS [BMS, Bis(2-mercaptoethyl)sulfone] |  |  |  |  |  |  | 0.0517±0.0194 | −0.31 V |  | Disulfide Reduction Potential (E°′) ([8]; 50 mM potassium phosphate buffer pH 7, equilibrium with oxidized DTT, assuming E°′=−0.327 V for DTT, mean ± SE from seven experiments): −0.291±0.002 V; Thiol pKa ([9]; second (higher) thiol pKa): 9.0±0.2 |
| NCCS [Cysteamine] |  |  |  |  |  |  |  | −0.203 V^b | 8.37^c | Amino pKa [10]: 10.44 |
| N[C@H](CS)CCS [DTBA, (2S)-2-amino-1,4-dimercaptobutane] | 0.0093 ± 0.0003 M⁻¹ s⁻¹ | 0.29 ± 0.02 M⁻¹ s⁻¹ | 0.83 ± 0.04 M⁻¹ s⁻¹ | 1342 ± 148 M⁻¹ s⁻¹ | 15.1 ± 1.0 M⁻¹ s⁻¹ | > 99% | 0.469±0.131 |  |  | pKa ([1]; lower (first) thiol pKa, 0.10 M potassium phosphate buffer): 8.2 ± 0.2; pKa ([1]; second (higher) thiol pKa, in parentheses in Table 1): 9.3 ± 0.1; kobs^DTBA/kobs^DTT, reduction of oxidized βME (fold faster than DTT) ([2]; pH 5.5): 4.4; kobs^DTBA/kobs^DTT, reduction of oxidized βME (fold faster than DTT) ([2]; pH 7.0): 3.5; kobs^DTBA/kobs^DTT, reduction of oxidized L-glutathione (fold faster than DTT) ([3]; pH 7.0): 5.2; kobs^DTBA/kobs^DTT, reduction of papain mixed disulfide (fold faster than DTT) [4]: 14; Solubility in water [11]: high solubility in water |
| OCCS [βME, β-mercaptoethanol] |  |  |  |  |  |  |  | −0.260 V^b | 9.61^a |  |

Reference: US9090662B2, “Dithioamine reducing agents” (WISCONSIN ALUMNI RESEARCH FOUNDATION, priority 2012, dated 2015)
